From PubChem BioAssay (NCI)
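At the GI50, growth is halved. TGI is the concentration that stops growth completely.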

Columns and labels:
Experiment in all cases: NCI-60 cell line screen, 384-well format
SF-539 CNS = system: SF-539 CNS
OVCAR-3 ovarian = system: OVCAR-3 ovarian
SK-OV-3 ovarian = system: SK-OV-3 ovarian
KM12 colon = system: KM12 colon
SN12C renal = system: SN12C renal
OVCAR-8 ovarian = system: OVCAR-8 ovarian
NCI-H226 lung = system: NCI-H226 lung
HOP-62 NSCLC = system: HOP-62 NSCLC
SR leukemia = system: SR leukemia
MDA-MB-231 breast = system: MDA-MB-231 breast
IGROV1 ovarian = system: IGROV1 ovarian
MDA-MB-435 melanoma = system: MDA-MB-435 melanoma
A498 renal = system: A498 renal

`CC(F)(F)c1cc(F)ccc1-c1sc2cc(O)ccc2c1Oc1ccc(/C=C/C(=O)O)cc1` showed a GI50 (SF-539 CNS) of 15.8 µM, a TGI (SF-539 CNS) of 29.8 µM and a GI50 (OVCAR-3 ovarian) of 12.6 µM. The TGI (OVCAR-3 ovarian) was 25.8 µM, the GI50 (SK-OV-3 ovarian) was 20.2 µM and the TGI (SK-OV-3 ovarian) was 43.5 µM. It also gave a GI50 (KM12 colon) of 12.7 µM, a TGI (KM12 colon) of 25.5 µM and a GI50 (SN12C renal) of 20.1 µM. It also gave a TGI (SN12C renal) of 40.5 µM, a GI50 (OVCAR-8 ovarian) of 25.4 µM and a TGI (OVCAR-8 ovarian) greater than 100 µM. The GI50 (NCI-H226 lung) was 20 µM, the TGI (NCI-H226 lung) was 40.3 µM and the GI50 (HOP-62 NSCLC) was 9.88 µM. The TGI (HOP-62 NSCLC) was 21.8 µM, the GI50 (SR leukemia) was 2.08 µM and the TGI (SR leukemia) was 4.33 µM. It also gave a GI50 (MDA-MB-231 breast) of 15.7 µM, a TGI (MDA-MB-231 breast) of 29.5 µM and a GI50 (IGROV1 ovarian) of 18.1 µM. For the same compound, the TGI (IGROV1 ovarian) was 39.3 µM, the GI50 (MDA-MB-435 melanoma) was 3.24 µM and the TGI (MDA-MB-435 melanoma) was 12.8 µM. It also gave a GI50 (A498 renal) of 13.3 µM and a TGI (A498 renal) of 29.1 µM.
